Entries after “also recorded” stand apart in the source; their conditions may differ.
Experiments:
[1] = mouse, in vivo, iv, 100 mg/kg
Protocol: (§2) Analysis. […] All the solvents were of HPLC grade. Chromatography was performed on an Altech Hypersil ODS C18 (5 μm particle size, 4.5×150 mm, Altech Associates, Deerfield, Ill.).
(§3) In vivo pharmacokinetics: Female NIH Swiss mice (Harland Sprague-Dawley, Indianapolis, Ind.) weighing 24-28 g were used for the pharmacokinetic experiments.
(§4) At least three animals each were sacrificed at 0.08, 0.025, 0.5, 0.75, 1.0, 2.0, 3.0, 4.0, 5.0 and 6.0 hours after drug administration. Blood (serum) from the heart and whole-brain samples were collected. Serum samples were treated immediately and brain samples were frozen at −20° C. until analysis. To determine the nucleoside concentrations in the serum, a know amount of serum sample, 50 μL of the internal standard (AzdU, 5 μg/mL) and 1.0 mL of acetonitrile as a protein precipitant were added to polypropylene microcentrifuge tubes (1.7 mL). Tubes were mixed and centrifuged at 9,000 rpm for 10 minutes.
(§5) After homogenization, 1.8 mL of acetonitrile was added to tissue homogenates, samples were mixed and centrifuged at 9,000 rpm for 10 minutes. The resulting supernatant from the serum or the brain was transferred to a clean tube and dried under a stream of nitrogen gas at 22° C. The residue was reconstituted in 220 μL of mobile phase D and after centrifugation at 12,000 rpm for 40 min, 100-150 μL was injected for the HPLC analysis. […] After each assay, the column was equilibrated to initial conditions for 7 minutes.
(§6) The area under concentration (AUC) versus time profiles from time zero to the last measured concentration were determined by the linear trapezoidal rule and the AUC from the time of the last measured concentration to infinity was determined by dividing the last determined concentration by the least-squares elimination rate constant (λZ). […] The relative tissue exposure (re) of the compounds was calculated from AUCTissue/AUCserum.

[2] = in vivo; conditions: female, NIH Swiss, mouse; for Kp: brain
Protocol: as §2, §3, §4, §5, §6

[3] = in vivo; cited from earlier work
[4] = In vitro metabolism study of 6-AAP and ara-A in mouse liver homogenate, serum and brain homogenate
Protocol: (§7) All the solvents were of HPLC grade. Chromatography was performed on an Altech Hypersil ODS C18 (5 μm particle size, 4.5×150 mm, Altech Associates, Deerfield, Ill.).
(§8) In vitro metabolism study. Female NIH Swiss mice (Harland Sprague-Dawley, Indianapolis, Ind.) were sacrificed and serum, liver and brain tissues were collected before each experiment. Serum was collected from several animals. The brain and liver were washed in normal saline at 4° C., wiped and then weighed. […] Samples and blanks of volume 400 μL were collected at 0, 5, 15, and 30 minutes and at 1, 2, 3, 4 and 5 hours.
(§9) To measure the analyte concentrations in serum, liver or brain homogenate, 400 μL of sample was mixed with 50 μL of internal standard (AzdU, 5 μg/mL) and 0.7 mL of acetonitrile. After centrifugation, the supernatant was decanted to another tube and treated with anhydrous Na2SO4, then vortexed for one minute and centrifuged again. The organic layer was separated and evaporated under nitrogen stream at room temperature. The residue was reconstituted in mobile phase A and filtered through MPS-I micropartition system (3KD membranes (Amicon Inc., Beverly, Mass.) by centrifugation for 50 minutes at 2000 rpm to further clean-up the samples. 100 μL of filtrate was injected for analysis.

[5] = Stability of 6-AAP at pH 2, 7 and 11 by UV spectroscopy; type: physicochemical; conditions: 37° C.
Protocol: (§1) The stability of 6-AAP at pH 2, 7 and 11 and towards adenosine deaminase hydrolysis was studied by UV spectroscopy.
Stability studies of 6AAP. A kinetic study at varying pHs (pH 2, 7 and 11 at 37.1° C.) was performed on a UV spectrophotometer to investigate the stability of 6-AAP. […] At pH 2, the compound was stable.

[6] = biological target: T1, adenosine deaminase (Bos taurus, UniProt P56658); test: Adenosine deaminase study of 6-AAP; type: biochemical, calf; conditions: phosphate buffer pH 7.4, 25° C., up to three hours
T1 construct: Type II crude powder from calf intestinal mucosa; purchased Sigma chemical Co., St. Louis, Mo; Type II crude powder; host or cells: calf intestinal mucosa
T1 sequence (P56658 1-363): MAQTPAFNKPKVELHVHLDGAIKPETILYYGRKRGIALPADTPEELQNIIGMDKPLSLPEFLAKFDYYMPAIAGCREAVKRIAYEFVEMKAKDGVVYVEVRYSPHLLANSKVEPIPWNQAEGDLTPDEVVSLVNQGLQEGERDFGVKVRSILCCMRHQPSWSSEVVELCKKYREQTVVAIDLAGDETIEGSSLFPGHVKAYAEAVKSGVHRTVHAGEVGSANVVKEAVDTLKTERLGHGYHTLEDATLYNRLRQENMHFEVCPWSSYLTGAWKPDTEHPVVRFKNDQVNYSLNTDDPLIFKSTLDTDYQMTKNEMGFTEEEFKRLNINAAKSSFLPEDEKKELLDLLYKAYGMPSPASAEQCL
Protocol: as §1
Materials: Melting points were determined on a Mel-Temp II laboratory device and are uncorrected. The ^1H NMR spectra were recorded on a JEOL FX 90 Q FT spectrophotometer, with TMS as the internal standard; chemical shifts are reported in parts per million (δ), and the signals are quoted as s (singlet), d (doublet), t (triplet) or m (multiplet). UV spectra are recorded on a Beckman DU-650 spectrophotometer. TLC was performed on Uniplates (silica gel) purchased from Analtech Co. Elemental analysis was performed by Atlantic Microlab, Inc., Norcross, Ga. Ara-A and Adenosine deaminase (Type II crude powder from calf intestinal mucosa, 1-5 units/mg activity) was purchased from Sigma chemical Co., St. Louis, Mo. All other chemicals are of reagent grade. Methanol and acetonitrile, methyl sulfoxide were purchased from EM Science, Gibbstown, N.J.
Adenosine deaminase studies.

[7] = in vitro; conditions: female, NIH Swiss, mouse
Protocol: as §7, §8, §9

[8] = system: microsomal fraction of the human liver homogenate; test: Azido reduction assay
Protocol: Briefly, incubation mixtures contained either 1.5 mg of human liver fraction protein (homogenate or supernatant fractions following centrifugation) or 1.5 mg microsomal protein, 5.0 mM MgCl2, 6.0 mM NADPH and 0.4 mg/mL of 6-AAP in 0.1 M phosphate buffer saline at pH 7.4 (final volume of 0.2 mL). The reaction was initiated by adding NADPH and conducted at 37° C. for 60 minutes under nitrogen. Reactions were terminated by heating at 100° C. for 30 seconds and the proteins were removed by centrifugation at 14,000 g for six minutes. Aliquots (100 μL) were then analyzed for nucleosides by HPLC. Control incubations were performed in the absence of protein.
Inhibition of azido reduction assay: Assays were performed using 1.5 mg microsomal protein as described above following either a 45 second exposure to carbon monoxide or a 5 minute pre-incubation with 1 mM metyrapone prior to the addition of NADPH.

[9] = In vivo pharmacokinetics of 6-AAP and ara-A in mice (serum and brain)
Protocol: as §2, §3, §4, §5, §6

[10] = in vivo; conditions: for AUC: AUC0-τ; for half-life: t½
Text: Animal studies. […] Animal studies were approved by the University of Georgia Animal Care and Use Committee and conducted in accordance with guidelines established by the Animal Welfare Act and the National Institutes of Health Guide for the Care and Use of Laboratory Animals. […] Animals were acclimatized to this environment for one week prior to the experiments.
At selected time intervals, mice (three animals per each time point) were anesthetized with diethyl ether and sacrificed by exsanguination via left ventricular heart puncture. Serum was harvested from blood collected. The brain was excised, rinsed with normal saline, blotted dry and weighed.
Analytical Methodology. […] The brain or liver tissue were homogenized in a 1:1 (g:mL) ratio with ice cold isotonic 0.05 M phosphate buffer, pH 7.4. […] Acetonitrile (600 μL) containing 0.1% acetic acid was added while vortexing to precipitate proteins. The tubes were centrifuged at 3,000 rpm for five minutes and the supernatant was transferred to a clean tube. Supernatant was evaporated to dryness under a stream of nitrogen gas at room temperature. The residual film was reconstituted in 110 μL of mobile phase and 50 μL was injected onto the HPLC.
Chromatographic separations were performed using a Hypersil ODS column 150×4.5 mm, 5 μm particle size (Alltech Associates, Deerfield, Ill.) preceded by a guard column packed with 30-40 μm pellicular Perisorb RP-18. Mobile phase flow rate was 2 mL/min. For the analysis of FAAddP and 2′-F-ara-ddA, the mobile phase consisted of 7% (v/v) acetonitrile in 80 mM sodium acetate, pH 5.0. […] Eluants were monitored at a UV wavelength of 260 nm.
Nucleoside standards ranging from 0.04 μg/mL to 100 μg/mL, prepared in blank PBS, serum, brain homogenate and liver homogenate were treated the same as unknown samples. Samples with nucleoside concentrations greater than 100 μg/mL were diluted with the appropriate blank matrix.
Data analysis in vivo studies. Nucleoside concentration as a function of time data were analyzed by a non-compartmental technique. […] Relative brain exposure (re) was calculated from AUCbrain/AUCserum.

[11] = system: HIV-1; conditions: relative to parent compounds ddA, ddI; cited from earlier work
[12] = mice; after oral and intravenous prodrug 2′-F-ara-ddP administration; cited from earlier work
[13] = in vivo; cited from earlier work; remark: listed apart in the source
[14] = 6-AAP incubated in mouse liver homogenate
[15] = after 6-AAP 100 mg/kg iv, brain
[16] = after 6-AAP 100 mg/kg iv, serum
[17] = after 6-AAP 100 mg/kg oral, brain
[18] = after 6-AAP 100 mg/kg oral, serum
[19] = 6-AAP and coformycin incubated in mouse liver homogenate
[20] = female, NIH-Swiss, mouse, in vivo, iv, 55 mg/kg
[21] = female, NIH-Swiss, mouse, in vivo, po, 55 mg/kg
[22] = female, NIH-Swiss, mouse, in vivo, iv, 20 mg/kg
[23] = female, NIH-Swiss, mouse, in vivo, iv, 112 mg/kg

## Nc1ncnc2c1ncn2[C@@H]1O[C@H](CO)[C@@H](O)[C@@H]1O [ara-A, 9-(β-D-arabinofuranosyl)adenine, reference compound]
[1]; female, NIH Swiss
  serum level, initial (declined from): 18500 ± 3500 ng/mL
[1]
  presence in the brain: not found
[2]; in vivo, iv, 100 mg/kg
  AUC: 3950 ± 200 ng·h/mL
  concentration at 25 minutes: 330 ± 250 ng/mL
[3]
  half-life of ara-A: four times longer
[4]; [14]
  T1/2: 1.46 h
[4]; Ara-A incubated in mouse liver homogenate
  T1/2: 0.04 h
[4]; mouse liver homogenate
  half-life of ara-A generated from 6-AAP alone, times greater than that of ara-A itself: 36 times

## [N-]=[N+]=Nc1ncnc2c1ncn2[C@@H]1O[C@H](CO)[C@@H](O)[C@@H]1O [Compound 6-AAP, 9-(β-D-arabinofuranosyl)-6-azidopurine]
[5]; UV at 287.5 nm, 2.75 hours
  stability at pH 2: did not show any significant change; also recorded: stable
  stability at pH 7: did not show any significant change; also recorded: stable
[5]; UV spectroscopy
  stability at pH 11: immediately changed its UV absorption maximum; also recorded: shifted from 287.5 nm to 222.5 nm immediately
[6]
  hydrolysis by adenosine deaminase: not hydrolysed
[2]; intravenous, 100 mg/kg
  Kp: 0.02
[2]; iv, 100 mg/kg
  Kp: 0.02
[2]; oral, 100 mg/kg
  Kp: 0.3
[2]; po, 100 mg/kg
  Kp: 0.33
[2]; serum, iv, 20 mg/kg
  AUC: 85600 ng·h/mL
[2]; serum, iv, 100 mg/kg
  AUC: 201000 ± 17900 ng·h/mL
[2]; serum, po, 100 mg/kg
  AUC: 13800 ± 1400 ng·h/mL
  bioavailability: 6.8%
[7]; brain homogenate
  half-life at 100 μg/mL: 7.29 h
[7]; tissue homogenate
  half-life at 100 μg/mL: 4.9 h
[8]
  azido reduction (metabolites formed): converted to ara-A
[9]; after 6-AAP 100 mg/kg iv
  Maximum concentration in serum, intravenous: 465 ± 167 µg/mL
  maximum concentration in the brain, intravenous: 5.92 ± 0.7 µg/g
  time of maximum concentration in the brain, intravenous: 5 min
[9]; [15]
  AUC: 4410 ± 370 ng·h/mL
  t1/2: 0.77 h
[9]; [16]
  AUC: 201100 ± 17900 ng·h/mL
  t1/2: 0.55 h
[9]; after 6-AAP 100 mg/kg oral
  Maximum concentration in serum, oral: 7.8 ± 2.51 µg/mL
  maximum concentration in the brain, oral: 1.87 µg/g
  time of maximum concentration in serum, oral: 60 min
  time of maximum concentration in the brain, oral: 30 min
[9]; after 6-AAP 100 mg/kg oral, AUCTissue/AUCserum
  re (brain): 0.30
[9]; [17]
  AUC: 4120 ± 370 ng·h/mL
  t1/2: 1.29 h
[9]; [18]
  AUC: 13770 ± 1400 ng·h/mL
  t1/2: 0.58 h
[9]; serum
  fold difference in the AUC values after iv dosing of 20 and 100 mg/kg: 5 fold
[4]; [19]
  Kel: 0.12 h⁻¹
  T1/2: 5.98 h
[4]; 6-AAP incubated in mouse brain homogenate
  Kel: 0.01 h⁻¹
[4]; [14]
  Kel: 0.14 h⁻¹
  T1/2: 4.66 h
[4]; 6-AAP incubated in mouse serum, calculated from 0 to 1 h
  Kel: 0.25 h⁻¹
[4]; 6-AAP incubated in mouse serum, calculated from 0 to 1 h (slow initial decline)
  T1/2: 3.73 h

## Nc1ncnc2c1ncn2[C@@H]1O[C@H](CO)C[C@@H]1F [2′-F-ara-ddA, 2′-fluoro-2′,3′-dideoxyadenosine]
[10]; [20]
  AUC0-τ: 3.9 µM·h
  AUC: 3 µM·h
[10]; [21]
  AUC: 0.8 µM·h
  half-life: 1.74 h
[10]; mice, after FAAddP 55 mg/kg iv, brain
  AUC/Dose: 0.02 μM · h/μmol/kg
[10]; mice, after FAAddP 55 mg/kg iv, serum
  AUC/Dose: 0.04 μM · h/μmol/kg
[10]; mice, after FAAddP 55 mg/kg oral, serum
  AUC/Dose: 0.005 μM · h/μmol/kg
[11]
  potency in protecting CD4+ATH8 cells from cytopathogenic effects of HIV-1: as potent as the parent compounds

## O=c1[nH]cnc2c1ncn2[C@@H]1O[C@H](CO)C[C@@H]1F [2′-F-ara-ddI, 2′-fluoro-2′,3′-dideoxyinosine]
[10]; female, NIH-Swiss, mouse, in vivo, iv
  clearance: 36.3 mL/min/kg
[10]; [22]
  Kp: 0.165
  half-life: 0.41 h
[10]; [20]
  t½: 0.96 h
  half-life: 0.68 h
[10]; [23]
  AUC/Dose: 0.025 μM · h/μmol/kg
  AUC: 10.1 µM·h
  half-life: 0.52 h
[10]; [21]
  AUC/Dose: 0.046 μM · h/μmol/kg
  AUC: 6.7 µM·h
  half-life: 2.92 h
[12]
  AUCbrain/AUCserum ratio: approximately 36%
[11]
  potency in protecting CD4+ATH8 cells from cytopathogenic effects of HIV-1: as potent as the parent compounds

## Nc1nc2c(ncn2COCCO)c(=O)[nH]1 [Acyclovir]
[13]
  oral bioavailability: 15-20%

Source: US6949521B2, “Therapeutic azide compounds” (priority 1995, dated 2005)
